Source: PMC12257535, “Distinct Interactions of Cannabinol and Its Cytochrome P450-Generated Metabolites with Receptors and Sensory Neurons” (Journal of Medicinal Chemistry, 2025)

Tests used:
[1] = In vivo metabolism of CBN in female mice, plasma levels by targeted LC/MS/MS; set-up: species or system C57BL/6 mice
Procedure: Initially dissolved in ethanol, CBN was combined with a volume of Tween 80, constituting 6% of the total solution volume for injection. Ethanol was eliminated via vacuum evaporation, and saline was added to prepare a 4 mg/mL solution. CBN (20 mg/kg) or vehicle was administered to C57BL/6 mice intravenously (IV) through the retro-orbital sinus or intraperitoneally (IP) at the lower right quadrant of the abdomen. Animals were euthanized at 30- or 120 min postinjection. Blood samples, collected via cardiac puncture into heparin tubes, underwent cold centrifugation at 4500 rpm for 15 min to isolate plasma. Plasma and whole liver samples were flash-frozen at −80 °C for subsequent analysis. Our decision to use female mice for this experiment was based on the availability of age-matched mice in the colony at the time of the experiment.
Mice were anaesthetized with a 3% inhalant dose of isoflurane until their respiratory rate decreased to 50% of baseline (i.e., 40–60 breaths/min) and the righting reflex was abolished. Mice were subsequently removed from the induction chamber and laid on their side. Using the index finger and thumb of the nondominant hand, the skin above and below the eye was retracted until a slight protrusion from the socket was noted. A 29G1/2 needle was inserted, bevel down, into the medial canthus at an approximate 45-degree angle until slight resistance was noted. Volume was slowly infused at a rate of 15uL/second. The needle was subsequently removed from the eye socket, and ophthalmic ointment was added.
Animals were gently restrained by scruff, and the injection site at the lower right quadrant of the abdomen was identified. The needle was inserted at a 60-degree angle to the body, and the plunger was lightly withdrawn to ensure the needle was not in contact with viscera or organs before dispensing volume.
200 μL plasma samples were collected and used for extraction using 1 mL of Hexane: Ethyl acetate (8:2 v/v) following a similar protocol described above.
Samples were analyzed using the Sciex QTrap 6500+ system (Framingham, MA) with Waters Acquity I- class plus UPLC. Software Analyst 1.7.1 was used for data acquisition.
The LC separation was performed on a Waters Acquity UPLC BEH column (2.1 × 100 mm, 1.7 μm) with mobile phase A (0.1% formic acid in water) and mobile phase B (0.1% formic acid in acetonitrile). The flow rate was 0.5 mL/min unless noted otherwise. The linear gradient was as follows: 0–0.5 min, 70%A; 2 min, 20%A; 4–4.2 min, 0%A; 4.21–5.2 min, 0%A (0.8 mL/min); 5.3–6.9 min, 70%A. The autosampler was set at 10 °C, and the column was kept at 50 °C. The injection volume was 5 μL.
Mass spectra were acquired under positive electrospray ionization (ESI) with the ion spray voltage of 4500 V. The source temperature was 500 °C. The curtain gas, ion source gas 1, and ion source gas 2 were 32, 50, and 70 psi, respectively. Multiple reaction monitoring (MRM) was used for quantitation with the MRM transition of CBN (m/z 311.2 → m/z 269.1), CBN-1′–OH (m/z 327.2 → m/z 253.1), CBN-11-OH (m/z 327.2 → m/z 128.1), CBN-p-quinone (m/z 325.2 → m/z 283.1) and EPEA-d4 as internal standard (m/z 350.3 → m/z 66.1).

CB2 receptor = CB2 receptor (Homo sapiens, UniProt P34972); experiment: G protein nanoBRET assay, antagonist mode, CB2 receptor; conditions: 50 μM after pretreatment with 1 μM CP-55940
TRP channel = system: TRP channel; set-up: method as in ref 11 (De Petrocellis et al., citation mark lost in text); conditions: stimulation by 1 mM carvacrol; ref 11 (De Petrocellis et al.); read-out: IC50, prevention of intracellular calcium increase upon carvacrol; cited from earlier work
CB1 receptor = CB1 receptor (Homo sapiens, UniProt P21554); experiment: G protein nanoBRET assay, antagonist mode, CB1 receptor; conditions: 50 μM after pretreatment with 1 μM CP-55940
IL-6 = IL-6 ELISA in LPS-stimulated BV2 microglial cells; type: cell-based; conditions: LPS-stimulated BV2, 5 μM
Procedure: (§1) The BV2 microglial cells were subjected to the treatment of LPS both in the absence and presence of CBN and its selected metabolites. The seeding density for this assay was 1 × 10^5 cells/well. The cells were initially treated with the molecules for 4 h before being stimulated with LPS (25 ng/mL). The NO assay was performed 24 h after the treatment with LPS. The NO assay was performed according to the manufacturer’s protocol, and NO levels were quantified using nitrate standard curves. For the assay, 50 μL of cell media was used in a 96-well plate, and the absorbance was recorded at 540 nm. All measurements were performed in n = 5.
(§2) ELISA assays of IL-6, IL-10 (Item No. 88–7105), and Arginase 1 were performed using the same supernatant with which we had completed the NO and LDH assays. The culture media was collected, and the IL-6 (Thermo Scientific) and Arginase 1 (abcam) assays were performed using the specific monoclonal antibodies as per the manufacturer’s instructions.

Arginase 1 = Arginase 1 ELISA in LPS-stimulated BV2 microglial cells; type: cell-based
Procedure: as §1, §2

IL-10 = IL-10 ELISA in LPS-stimulated BV2 microglial cells; type: cell-based; conditions: LPS-stimulated BV2, 1–5 μM
Procedure: as §1, §2

NO = NO levels in LPS-stimulated BV2 microglial cells; type: cell-based
Procedure: as §1

CB1 receptors = target: CB1 receptors; set-up: method as in ref 10 (Rhee et al., citation mark lost in text); conditions: COS-7 cell lines; ref 10 (Rhee et al.); cited from earlier work
CB2 receptors = target: CB2 receptors; set-up: method as in ref 10 (Rhee et al., citation mark lost in text); conditions: COS-7 cell lines; ref 10 (Rhee et al.); cited from earlier work
CYP3A4 [2] = target: T1, CYP3A4 (Homo sapiens, UniProt P08684, S18F); experiment: CYP3A4-mediated CBN metabolism; type: in vitro ADME; set-up: polyhistidine (C); made in house; host or cells: E. coli DH5alpha; conditions: targeted and untargeted metabolomics
TRPV4 = system: TRPV4; set-up: method as in ref 11 (De Petrocellis et al., citation mark lost in text); conditions: ref 11 (De Petrocellis et al.); cited from earlier work
CYP3A4 [3] = target: T1, CYP3A4; experiment: NADPH oxidation assay with CYP3A4 nanodisc and CPR; conditions: triplicate
DRG neurons = experiment: Calcium responses of cultured DRG sensory neurons; type: cell-based; conditions: cultured mouse DRG neurons, 50 μM × 15 s
Procedure: 9 CBN and 11-OH CBN activate DRG neurons with similar response magnitudes but differ in their percentage of neurons activated and time to peak response. Calcium response traces of representative cultured mouse DRG neurons following application of CBN (A) and 11-OH CBN (B) 50 μM × 15 s (arrow). […] Mean value ± SEM (CBN: n = 59; 11-OH CBN: n = 29, two-tailed t test, Prism GraphPad).

T1 sequence (P08684 with tags, fused parts or gaps S18F limits assumed): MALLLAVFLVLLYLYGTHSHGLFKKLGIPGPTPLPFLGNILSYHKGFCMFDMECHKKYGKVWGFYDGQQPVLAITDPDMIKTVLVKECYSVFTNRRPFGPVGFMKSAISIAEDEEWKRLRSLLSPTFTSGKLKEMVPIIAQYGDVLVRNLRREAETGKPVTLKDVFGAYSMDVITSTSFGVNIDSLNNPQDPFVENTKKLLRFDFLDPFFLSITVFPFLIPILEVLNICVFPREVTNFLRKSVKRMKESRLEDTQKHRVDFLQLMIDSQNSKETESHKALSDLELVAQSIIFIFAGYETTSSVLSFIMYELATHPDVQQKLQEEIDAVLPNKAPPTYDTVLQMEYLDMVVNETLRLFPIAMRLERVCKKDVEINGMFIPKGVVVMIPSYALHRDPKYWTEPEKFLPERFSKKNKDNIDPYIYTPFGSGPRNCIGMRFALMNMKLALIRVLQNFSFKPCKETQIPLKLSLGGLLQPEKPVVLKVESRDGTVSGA
Chain of CB2 receptor (P34972 whole entry): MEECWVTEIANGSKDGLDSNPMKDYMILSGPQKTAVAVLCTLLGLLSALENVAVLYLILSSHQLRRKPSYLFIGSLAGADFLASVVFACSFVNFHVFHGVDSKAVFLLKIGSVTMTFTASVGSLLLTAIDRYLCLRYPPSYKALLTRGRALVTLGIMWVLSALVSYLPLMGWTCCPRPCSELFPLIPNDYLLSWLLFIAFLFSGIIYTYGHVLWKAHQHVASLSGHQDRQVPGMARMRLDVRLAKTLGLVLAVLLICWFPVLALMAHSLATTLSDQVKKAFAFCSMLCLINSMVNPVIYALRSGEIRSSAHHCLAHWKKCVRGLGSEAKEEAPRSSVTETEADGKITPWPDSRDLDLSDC
Chain of CB1 receptor (P21554 whole entry): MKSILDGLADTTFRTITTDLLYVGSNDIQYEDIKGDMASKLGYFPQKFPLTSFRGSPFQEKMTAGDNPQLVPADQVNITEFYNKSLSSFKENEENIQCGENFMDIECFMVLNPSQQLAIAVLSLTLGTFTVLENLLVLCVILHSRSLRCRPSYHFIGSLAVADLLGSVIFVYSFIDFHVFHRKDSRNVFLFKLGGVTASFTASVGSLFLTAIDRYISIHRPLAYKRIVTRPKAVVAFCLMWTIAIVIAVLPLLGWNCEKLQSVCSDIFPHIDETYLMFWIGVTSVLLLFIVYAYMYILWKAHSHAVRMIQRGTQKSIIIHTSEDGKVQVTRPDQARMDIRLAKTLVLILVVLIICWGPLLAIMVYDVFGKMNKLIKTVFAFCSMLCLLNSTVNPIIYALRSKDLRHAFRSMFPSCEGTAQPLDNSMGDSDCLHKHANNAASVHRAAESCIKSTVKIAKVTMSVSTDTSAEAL

CCCCCc1cc(O)c2c(c1)OC(C)(C)c1ccc(C)cc1-2 [CBN, Cannabinol]
reduction of plasma level between 0.5 and 2 h ([1]; IP administration of CBN): 3 fold
reduction of plasma level between 0.5 and 2 h ([1]; IV administration of CBN): ~3 fold
amount of CBN available in plasma, intravenous relative to intraperitoneal ([1]; female mice, CBN 20 mg/kg, plasma): 3.0 times
inhibition of CB2 receptor (CB2 receptor): partial inhibition
IC50 (TRP channel): 9.4 ± 0.1 µM
inhibition of CB1 activation (CB1 receptor): significant but partial inhibition
IL-6 levels (IL-6): reduction in IL-6 levels
Arginase1 levels (Arginase 1): slight increase in Arginase1 levels
IL-10 levels (IL-10): concentration-dependent increase in IL-10 levels
production of NO (NO; LPS-stimulated BV2, 5 μM): slightly lower production of NO
change in NO levels compared to cells with only LPS treatment (NO; LPS-stimulated BV2, 1, 2.5 and 5 μM): no detectable significant (ns) change
Ki (CB1 receptors): 211 ± 35 nM
Ki (CB2 receptors): 126 ± 26 nM
metabolism of CBN by CYP3A4 (CYP3A4 [2]): did not metabolize
efficacy in activating TRPV4 compared to ionomycin (TRPV4): 15.3–26.1%
rate of NADPH oxidation in the presence of the compound (CYP3A4 [3]): 249.731±14625 nmol/min/nmol
Ca2+ response (%) (DRG neurons): 38.9 ± 4.3%
DRG neuron activation (%) (DRG neurons): 29.3 ± 4.9%
Response Time (DRG neurons): 40.7 ± 4.8 s
percentage of DRG neurons activated (DRG neurons): 29.3 ± 4.9%
time to peak response (DRG neurons): 40.7 ± 4.8 s
